Data published in the supplement of paper PMC11061612.

What was measured:
Assay in all cases: combination Emax (second highest fraction inhibited in the dose matrix, 72 h); higher = more inhibition; extreme values may be limits of the assay
[1] = system: NB14 (Neuroblastoma)
Outline: (§1)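 Cell lines grown in DMEM/F12 or RPMI with 10% FBS were plated in 1536-well plates and held 24 hours at 37°C, 5% CO2 before 72 hours of exposure to two-drug dose matrices, with DMSO typically at 0.2%. CellTiter-Glo 2.0 luminescence gave viability, which was converted to inhibition. Vehicle wells were set to 0 and blank wells to 1. Combination Emax is the second-highest inhibition in the matrix, and Bliss excess is the observed combination effect minus the expected EA + EB − EA·EB, where EA and EB are the single-agent effects.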

[2] = system: HO-1-u-1 (Oral Cavity Carcinoma)
Outline: as §1

[3] = system: SW1271 (Small Cell Lung Carcinoma)
Outline: as §1

[4] = system: SW1116 (Colorectal Carcinoma)
Outline: as §1

[5] = system: HARA (Squamous Cell Lung Carcinoma)
Outline: as §1

[6] = system: K5 (Thyroid Gland Carcinoma)
Outline: as §1

[7] = system: LB771-HNC (Head and Neck Carcinoma)
Outline: as §1

[8] = system: 8305C (Thyroid Gland Carcinoma)
Outline: as §1

[9] = system: MHH-PREB-1 (B-Cell Non-Hodgkin's Lymphoma)
Outline: as §1

[10] = system: NCI-H2795 (Mesothelioma)
Outline: as §1

[11] = system: CAL-54 (Kidney Carcinoma)
Outline: as §1

[12] = system: LU-139 (Small Cell Lung Carcinoma)
Outline: as §1

[13] = system: CTB-1 (B-Cell Non-Hodgkin's Lymphoma)
Outline: as §1

[14] = system: NCI-H28 (Mesothelioma)
Outline: as §1

[15] = system: KYSE-410 (Esophageal Squamous Cell Carcinoma)
Outline: as §1

[16] = system: OVCAR-8 (Ovarian Carcinoma)
Outline: as §1

[17] = system: MDA-MB-468 (Breast Carcinoma)
Outline: as §1

[18] = system: 639-V (Bladder Carcinoma)
Outline: as §1

[19] = system: PCI-30 (Head and Neck Carcinoma)
Outline: as §1

[20] = system: SW626 (Colorectal Carcinoma)
Outline: as §1

SMILES | combination Emax [1] | combination Emax [2] | combination Emax [3] | combination Emax [4] | combination Emax [5] | combination Emax [6] | combination Emax [7] | combination Emax [8] | combination Emax [9] | combination Emax [10] | combination Emax [11] | combination Emax [12] | combination Emax [13] | combination Emax [14] | combination Emax [15] | combination Emax [16] | combination Emax [17] | combination Emax [18] | combination Emax [19] | combination Emax [20]
CC1(C)CCC(CN2CCN(c3ccc(C(=O)NS(=O)(=O)c4ccc(NCC5CCOCC5)c([N+](=O)[O-])c4)c(Oc4cnc5[nH]ccc5c4)c3)CC2)=C(c2ccc(Cl)cc2)C1 [Venetoclax] + COc1cc(Nc2ncc3c(n2)-c2ccc(Cl)cc2C(c2c(F)cccc2OC)=NC3)ccc1C(=O)O [Alisertib] (first compound max 1 µM, 7x7, partner max 10 µM) | 0.993 | 0.611 | 0.326 | 0.341 | 0.787 | 0.841 | 0.697 | 0.627 | 0.199 | 0.936 | 0.523 | 0.738 | 0.75 | 0.348 | 0.361 | 0.487 | 0.748 | 0.752 | 0.218 | 0.314
COc1cc2c(cc1OCCCCCOc1cc3c(cc1OC)C(=O)N1C=C(C)C[C@H]1C=N3)N=C[C@@H]1CC(C)=CN1C2=O [SG3199] + O=C(c1cc(Cc2n[nH]c(=O)c3ccccc23)ccc1F)N1CCN(C(=O)C2CC2)CC1 [Olaparib] (first compound max 0.001 µM, 7x7, partner max 10 µM) | 0.42 | 0.15 | 0.18 | 0.0344 | 0.174 | 0.196 | 0.181 | 0.141 | 0.13 | 0.269 | 0.121 | 0.174 | 0.28 | 0.0051 | 0.136 | 0.268 | 0.231 | 0.201 | 0.105 | 0.102
Cc1c2c(nn1C)CSCc1cc(n(C)n1)CSc1cc(c3ccccc3c1)OCCCc1c(C(=O)O)n(C)c3c-2c(Cl)ccc13 [AZD5991] + Cn1cnc2c(F)c(Nc3ccc(Br)cc3Cl)c(C(=O)NOCCO)cc21 [Selumetinib] (first compound max 1 µM, 7x7, partner max 3 µM) | 0.76 | 0.292 | 0.448 | 0.446 | 0.223 | 0.739 | 0.429 | 0.512 | 0.13 | 0.971 | 0.28 | 0.148 | 0.203 | 0.316 | 0.331 | 0.255 | 0.595 | 0.283 | 0.198 | 0.528
Cc1cc2ncnn2cc1Nc1ncc2c(n1)n(C1CCOCC1)c(=O)n2C [AZD7648] + O=C(c1cc(Cc2n[nH]c(=O)c3ccccc23)ccc1F)N1CCN(C(=O)C2CC2)CC1 [Olaparib] (first compound max 10 µM, 7x7, partner max 10 µM) | 0.508 | 0.261 | 0.24 | 0.0602 | 0.314 | 0.421 | 0.148 | 0.31 | 0.232 | 0.421 | 0.218 | 0.131 | 0.331 | 0.131 | 0.141 | 0.344 | 0.242 | 0.182 | 0.198 | 0.13
CN(CCO)CC[C@H](CSc1ccccc1)Nc1ccc(S(=O)(=O)NC(=O)c2ccc(N3CCC([C@@H](O)c4ccccc4-c4ccc(Cl)cc4)CC3)cc2)cc1S(=O)(=O)C(F)(F)F [AZD4320] + CN(C)CCCOc1ccc(-c2ccc3ncc4c(c3c2)n(C2CCOCC2)c(=O)n4C)cn1 [AZD0156] (first compound max 1 µM, 7x7, partner max 1 µM) | 0.983 | 0.259 | 0.127 | 0.191 | 0.187 | 0.289 | 0.0751 | 0.559 | 0.205 | 0.417 | 0.163 | 0.923 | 0.206 | 0.163 | 0.108 | 0.212 | 0.656 | 0.19 | 0.158 | 0.573
COc1cccc(OCCCN)c1-c1cc(Nc2cnc(C#N)cn2)n[nH]1 [Prexasertib] + C=CCn1c(=O)c2cnc(Nc3ccc(N4CCN(C)CC4)cc3)nc2n1-c1cccc(C(C)(C)O)n1 [AZD1775] (first compound max 1 µM, partner max 1 µM) | 1 | 0.986 | 0.699 | 0.63 | 0.984 | 0.742 | 0.622 | 0.718 | 0.977 | 0.804 | 0.868 | 0.741 | 0.967 | 0.659 | 0.584 | 0.998 | 0.645 | 0.805 | 0.894 | 0.695
CC1(C)CCC(CN2CCN(c3ccc(C(=O)NS(=O)(=O)c4ccc(NCC5CCOCC5)c([N+](=O)[O-])c4)c(Oc4cnc5[nH]ccc5c4)c3)CC2)=C(c2ccc(Cl)cc2)C1 [Venetoclax] + Cc1cc2ncnn2cc1Nc1ncc2c(n1)n(C1CCOCC1)c(=O)n2C [AZD7648] (first compound max 1 µM, 7x7, partner max 10 µM) | 0.974 | 0.305 | 0.202 | 0.151 | 0.572 | 0.394 | 0.271 | 0.385 | 0.178 | 0.471 | 0.256 | 0.439 | 0.358 | 0.216 | 0.23 | 0.229 | 0.397 | 0.244 | 0.224 | 0.136
Cc1cc2ncnn2cc1Nc1ncc2c(n1)n(C1CCOCC1)c(=O)n2C [AZD7648] + C[C@@H]1COCCN1C2=NC(=NC(=C2)C3(CC3)[S@](=N)(=O)C)C4=C5C=CNC5=NC=C4 [AZD6738] (first compound max 10 µM, 7x7, partner max 10 µM) | 0.99 | 0.845 | 0.674 | 0.267 | 0.841 | 0.665 | 0.464 | 0.609 | 0.863 | 0.609 | 0.769 | 0.396 | 0.802 | 0.538 | 0.363 | 0.71 | 0.513 | 0.404 | 0.686 | 0.619
CN(C)CCCOc1ccc(-c2ccc3ncc4c(c3c2)n(C2CCOCC2)c(=O)n4C)cn1 [AZD0156] + C=CCn1c(=O)c2cnc(Nc3ccc(N4CCN(C)CC4)cc3)nc2n1-c1cccc(C(C)(C)O)n1 [AZD1775] (first compound max 1 µM, partner max 1 µM) | 1 | 0.77 | 0.476 | 0.235 | 0.809 | 0.424 | 0.557 | 0.924 | 0.844 | 0.512 | 0.642 | 0.59 | 0.898 | 0.434 | 0.32 | 0.8 | 0.42 | 0.204 | 0.265 | 0.508
CN(CCO)CC[C@H](CSc1ccccc1)Nc1ccc(S(=O)(=O)NC(=O)c2ccc(N3CCC([C@@H](O)c4ccccc4-c4ccc(Cl)cc4)CC3)cc2)cc1S(=O)(=O)C(F)(F)F [AZD4320] + Cn1cnc2c(F)c(Nc3ccc(Br)cc3Cl)c(C(=O)NOCCO)cc21 [Selumetinib] (first compound max 1 µM, 7x7, partner max 3 µM) | 1 | 0.465 | 0.534 | 0.599 | 0.219 | 0.679 | 0.255 | 0.71 | 0.164 | 0.827 | 0.311 | 0.928 | 0.591 | 0.313 | 0.391 | 0.498 | 0.789 | 0.978 | 0.224 | 0.837
Cc1cc2ncnn2cc1Nc1ncc2c(n1)n(C1CCOCC1)c(=O)n2C [AZD7648] + CCN(CCO)CCCOc1ccc2c(Nc3cc(CC(=O)Nc4cccc(F)c4)[nH]n3)ncnc2c1 [AZD2811] (first compound max 10 µM, 7x7, partner max 1 µM) | 0.837 | 0.449 | 0.376 | 0.249 | 0.364 | 0.571 | 0.251 | 0.451 | 0.343 | 0.45 | 0.443 | 0.397 | 0.697 | 0.345 | 0.187 | 0.311 | 0.492 | 0.278 | 0.318 | 0.25
CC1(C)CCC(CN2CCN(c3ccc(C(=O)NS(=O)(=O)c4ccc(NCC5CCOCC5)c([N+](=O)[O-])c4)c(Oc4cnc5[nH]ccc5c4)c3)CC2)=C(c2ccc(Cl)cc2)C1 [Venetoclax] + CCN(CCO)CCCOc1ccc2c(Nc3cc(CC(=O)Nc4cccc(F)c4)[nH]n3)ncnc2c1 [AZD2811] (first compound max 1 µM, 7x7, partner max 1 µM) | 1 | 0.324 | 0.174 | 0.202 | 0.714 | 0.413 | 0.186 | 0.354 | 0.187 | 0.422 | 0.251 | 0.668 | 0.59 | 0.255 | 0.191 | 0.298 | 0.624 | 0.248 | 0.229 | 0.212
